In PMC8829872 (Cancer chemotherapy and pharmacology, 2022):
Where two headings read alike, the source gives them in different places.

Assays:
[1] = cited from earlier work; for dose proportionality in exposure: single agent
[2] = system: human liver microsomes (HLMs); settings: cited from earlier work
[3] = mouse, in vivo
Experimental: The vehicle for all groups was 10% DMSO, 40% propylene glycol, and 50% dH2O. […] Mice were euthanized by CO2 inhalation and the following tissues collected: blood, liver, kidney, lung, skeletal muscle, and brain.
Duplicate standard curves with calibrators consisting of 0.3, 1, 3, 10, 30 100, 300, and 1,000 ng/mL, in addition to blank plasma, were prepared fresh on days of analysis using control Balb/c mouse plasma (Innovative Research, Novi, MI). QCs were prepared in bulk and stored at −80 °C, with concentrations of 0.8 (QCL), 20 (QCM), and 800 ng/mL (QCH). […] The injection volume was 3 μL. […] Curve fitting was accomplished through linear regression with 1/y^2 weighting. Semi-quantitation of metabolites was accomplished by reporting IS normalized metabolite response.
Noncompartmental (NC) PK was determined using GraphPad Prism (San Diego, CA) using the linear trapezoidal method and Bailer method of AUC determination for estimates of exposure in plasma, RBC, tumors, and tissues [24]. PK parameters or analysis requiring dose were adjusted for the actual dose as determined using measurements of dosing solution. Dose-normalized plasma exposures, Cmax and AUC, of PO treated groups of the dose linearity studies were compared using ANOVA tests to determine dose linearity.
Tissue partition coefficients (PTissue) and RBC partitioning (PRBC) were calculated using Eq. (1) and tested among PO treated groups using ANOVA tests.
The resulting concentrations were multiplied by the volume or weight to convert to a total amount and then divided by 3 to account for the number of mice per cage. These amounts were then divided by the average total amount of drug administered to calculate the percent excreted by urine and feces, see Eq. (2). Renal clearance (ClR) was calculated by dividing the excreted amount by the plasma AUC, see Eq. (3) [25].
When available, plasma metabolite data was used to determine semi-quantitative exposure as well as metabolic ratios, using Eq. (4). The MR among PO treated groups in the dose linearity studies were compared using ANOVA testing. Metabolite presence was also analyzed in urine and feces.

[4] = Intestinal contribution to oral bioavailability (hepatic and gut contributions calculated from IV PK); type: in vivo, mice; settings: 10 mg/kg IV
Experimental: The contribution of gut to oral bioavailability was estimated by calculating the contribution of liver processes to bioavailability from IV data and stripping this contribution from the observed bioavailabilities. Assuming IV drug clearance was restricted to hepatic processes, the predicted bioavailability based solely on liver processes, FH, was calculated from IV PK. […] Fe was derived from the amount of drug measured in urine (Ae) and the total amount of drug administered, see Eq. (7). ClBlood was defined by multiplying the observed plasma clearance (Clplasma) by the ratio of plasma exposure (AUCplasma) to total blood exposure (AUCBlood), see Eq. (8). AUCBlood was calculated using hematocrit (HCT) to construct total blood exposure contributions from exposure in RBC (AUCRBC) and plasma, see Eq. (9).

[5] = Unified compartmental PK model (ADAPT5); design: species or system mice; settings: for bioavailability: Balb/c, mouse, plasma, read-out: Model F (compartmental bioavailability)
Experimental: A unified compartmental PK model was developed using ADAPT5 [28] to fit the data, […]. Naïve-pooled concentration-time data from each study was used to estimate PK parameters that were shared between each treatment group. Model performance was determined and reported using parameter CV%, R^2, AIC (Akaike information criterion), as well as visually inspected with standardized residual plots. […] The amount of drug ultimately collected in this compartment allowed for calculation of the bioavailability. The developed model was then used to simulate expected plasma concentrations in the extensive PK study. Separately, tumor and plasma time concentration data from the extensive PK study was used to extend this model to add an uncoupled tumor compartment.

[6] = extensive PK study, model with uncoupled tumor compartment
[7] = non-linear model, dose linearity and bioavailability studies

Renal excretion of unaltered drug ([3]; Balb/c): < 4 % of dose
decrease of apparent clearance (Cl/F/kg) ([3]; Balb/c, po): approximately 50%
decrease of apparent volume of distribution (Vd/F/kg) ([3]; Balb/c, po): approximately 50%
excreted unchanged in the feces ([3]; Balb/c, po): 9.2-15.7 % of dose
Cl ([3]; Balb/c, po, 2 mg/kg): 75.7 mL/min/kg
Vd ([3]; Balb/c, po, 2 mg/kg): 11.4 L/kg
Cl ([3]; Balb/c, po, 7.5 mg/kg): 58.8 mL/min/kg
Vd ([3]; Balb/c, po, 7.5 mg/kg): 11.0 L/kg
Cl ([3]; Balb/c, po, 20 mg/kg): 40.4 mL/min/kg
Vd ([3]; Balb/c, po, 20 mg/kg): 5.50 L/kg
Cl ([3]; Balb/c, po, 75 mg/kg): 36.3 mL/min/kg
Vd ([3]; Balb/c, po, 75 mg/kg): 6.06 L/kg
Partitioning to lung, PO groups compared to the IV group [3]: approximately two-fold higher
Penetration into the brain [3]: limited
ClBlood [4]: 0.550 mL/min
Fraction excreted, Fe ([4]; urine): 0.0191
clearance ([4]; Balb/c, plasma, average mouse size 18.3 g, read-out: ClPlasma): 0.634 mL/min
bioavailability ([5]; 2 mg/kg PO): 40.4%
bioavailability ([5]; 7.5 mg/kg PO): 61.5%
bioavailability ([5]; 20 mg/kg PO): 80.4%
bioavailability ([5]; 75 mg/kg PO): 90.8%
Ka (fixed to dose linearity model estimate) [5, 6]: 0.234 min⁻¹
Kct (model estimate) [5, 6]: 0.325 min⁻¹
Ktc (model estimate) [5, 6]: 0.0537 min⁻¹
Vc (model estimate) [5, 6]: 5.04 L/kg
Ka (model estimate) [5, 7]: 0.234 min⁻¹
Km (model estimate, pre-systemic saturable efflux/metabolism) [5, 7]: 157 ng
Kna (model estimate) [5, 7]: 0.0120 min⁻¹
Vc (model estimate) [5, 7]: 1.91 L/kg
Vmax (model estimate, pre-systemic saturable efflux/metabolism) [5, 7]: 1238 ng/min
Vp (model estimate) [5, 7]: 2.61 L/kg
SMILES: C[C@@H]1COCCN1c1cc(C2([S@](C)(=N)=O)CC2)nc(-c2cc[nH]c3nccc2-3)n1 [AZD6738]
dose proportionality ([1]; BID with olaparib and durvalumab, 60 to 240 mg): dose proportionality
dose limiting toxicity (DLT) ([1]; clinical studies): thrombocytopenia
concentration at which monocyte and thrombocyte decreases occurred (PK-PD model) ([1]; clinical, increased up to 10 μg/mL): 2500 ng/mL
dose proportionality in exposure ([1]; 20 to 40 mg BID): greater than proportional increases
dose proportionality in exposure ([1]; 80 to 240 mg BID): approximate dose proportionality
enzymes of oxidative deimination to the primary sulfoxide metabolite [2]: CYP2C8/2J2
Amount excreted, Ae ([4]; urine): 4.00 µg
